Laboratory results: patent US5101072A, “Sulfonylhydrazines and their use as antineoplastic agents and as antitrypanosomal agents” (Yale University, priority 1989, dated 1992)

System: L1210 leukemia
Assay: Survival time of mice bearing the L1210 leukemia
Format: in vivo
Settings: for 60-day cures, % / % T/C (average survival time of treated/control animals × 100): L1210, at optimum effective daily dose, once daily × 6 days
Procedure: The tumor-inhibitory properties of several compounds, e.g., 1,2-bis(methylsulfonyl)-1-methylhydrazine, 1-methyl-1,2,2-tris(methylsulfonyl)hydrazine, 1,2-bis(methylsulfonyl)-1,2-dimethylhydrazine and 1-(2-chloroethyl)-1,2,2-tris(methylsulfonyl)hydrazine were determined by measuring the effects of these agents on the survival time of mice bearing the L1210 leukemia as described by K. Shyam, L. A. Cosby, and A. C. Sartorelli, J. Med. Chem., 28, 525-527 (1985).
^a Administered once daily for 6 consecutive days, beginning 24 hours
after tumor transplantation with 5-10 animals being used per group.
^b Average change in body weight from onset to termination of therapy
^c % T/C = average survival time of treated/control animals ×

[1] = mice bearing L1210, at optimum effective daily dose

| SMILES | 60-day cures, % [%] | % T/C (average survival time of treated/control animals × 100) [%] | AvΔ Wt, % (average change in body weight from onset to termination of therapy) [1] | AvΔ Wt, % (average change in body weight from onset to termination of therapy) (mouse, in vivo) [%] |
| --- | --- | --- | --- | --- |
| CS(=O)(=O)N(N(CCCl)S(=O)(=O)c1ccc(Br)cc1)S(C)(=O)=O [Br-4-C6 H4 SO2 N(CH2 CH2 Cl)N(SO2 Me)2, 2,2-Bis(methylsulfonyl)-1-[(4-bromophenyl)sulfonyl]-1-(2-chloroethyl)hydrazine] | 60 | 241 | +0.9% |  |
| CS(=O)(=O)N(N(CCCl)S(=O)(=O)c1ccc(Cl)cc1)S(C)(=O)=O [Cl-4-C6 H4 SO2 N(CH2 CH2 Cl)N(SO2 Me)2, 2,2-Bis(methylsulfonyl)-1-(2-chloroethyl)-1-[(4-chlorophenyl)sulfonyl]hydrazine] | 60 | 203 | -3.4% |  |
| Cc1ccc(S(=O)(=O)N(CCCl)N(S(C)(=O)=O)S(C)(=O)=O)cc1 [Me-4-C6 H 4 SO2 N(CH2 CH2 Cl)N(SO2 Me)2, 2,2-bis(methylsulfonyl)-1-(2-chloroethyl)-1-(4-toluenesulfonyl)hydrazine] | 60 | 215 | -12.0% |  |
| CS(=O)(=O)N(N(CCCl)S(=O)(=O)c1ccccc1)S(C)(=O)=O [C6 H5 SO2 N(CH2 CH2 Cl)N(SO2 Me)2, 2,2-bis(methylsulfonyl)-1-(2-chloroethyl)-1-phenylsulfonylhydrazine] | 40 | 187 | +0.5% |  |
| CS(=O)(=O)OCCN(N(S(C)(=O)=O)S(C)(=O)=O)S(C)(=O)=O [MeSO2 N(CH2 CH2 OSO2 Me)N(SO2 Me)2, 1-(2-methylsulfonyloxy)ethyl-1,2,2-tris(methylsulfonyl)hydrazine] | 0 | 198 |  | -4.2 |
| CS(=O)(=O)N(CCI)N(S(C)(=O)=O)S(C)(=O)=O [MeSO2 N(CH2 CH2 I)N(SO2 Me)2, 1-(2-iodoethyl)-1,2,2-tris(methylsulfonyl)hydrazine] | 0 | 110 | +8.0% |  |
| CS(=O)(=O)N(CCBr)N(S(C)(=O)=O)S(C)(=O)=O [MeSO2 N(CH2 CH2 Br)N(SO2 Me)2, 1-(2-bromoethyl)-1,2,2-tris(methylsulfonyl)hydrazine] | 0 | 213 | -2.0% |  |
| COc1ccc(S(=O)(=O)N(CCCl)N(S(C)(=O)=O)S(C)(=O)=O)cc1 [MeO-4-C6 H4 SO2 N(CH2 CH2 Cl)N(SO2 Me)2, 2,2-Bis(methylsulfonyl)-1-(2-chloroethyl)-1-[(4-methoxyphenyl)sulfonyl]hydrazine] | 100 |  | +5.9% |  |
